Where a name gives a salt, the structure may show the parent alone.
Key:
sodium channel = assay: Guanidine influx assay (14C-guanidine radiotracer flux, in vitro); type: cell-based, human or rat; details: guanidine influx assay using a known cell line that expresses a sodium channel
Outline: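 Sodium channel block is measured as reduced 14C-guanidine uptake in cells stably expressing human or rat channels, stimulated with aconitine. Potency is given as IC50 from a four-parameter curve.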

CYP3A4 = CYP3A4 (Homo sapiens, UniProt P08684); assay: Cytochrome P450 (CYP450) Inhibition Assay, CYP3A4 (Vivid fluorescence, BOMCC substrate); details: human, P450 Baculosomes (recombinant CYP3A4), probe BOMCC (Vivid substrate)
CYP3A4, sequence (P08684 whole entry): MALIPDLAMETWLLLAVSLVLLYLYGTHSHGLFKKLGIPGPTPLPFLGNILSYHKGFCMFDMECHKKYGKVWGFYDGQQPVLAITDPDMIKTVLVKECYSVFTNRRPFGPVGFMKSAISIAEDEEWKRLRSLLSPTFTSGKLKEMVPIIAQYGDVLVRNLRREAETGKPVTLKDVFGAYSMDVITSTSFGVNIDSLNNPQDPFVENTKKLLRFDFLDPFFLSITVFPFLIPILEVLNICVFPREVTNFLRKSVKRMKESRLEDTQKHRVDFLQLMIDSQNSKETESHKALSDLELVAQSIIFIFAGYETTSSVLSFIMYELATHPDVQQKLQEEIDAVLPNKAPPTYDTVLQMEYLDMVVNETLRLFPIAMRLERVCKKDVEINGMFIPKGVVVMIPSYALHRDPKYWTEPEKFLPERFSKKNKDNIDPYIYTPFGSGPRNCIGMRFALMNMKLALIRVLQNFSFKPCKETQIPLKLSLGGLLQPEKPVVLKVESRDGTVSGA

SMILES | melting point | IC50 (sodium channel) | inhibition at 10 µM (CYP3A4) | IC50 (sodium channel; activity level class)
CN1C(=O)C2(COc3cc4c(cc32)OCCO4)c2c(C(N)=O)cccc21 (stereo not drawn) [Example 16.72, 1′-methyl-2′-oxo-1′,2,2′,3-tetrahydrospiro[furo[2,3-g][1,4]benzodioxine-8,3′-indole]-4′-carboxamide] | > 250 °C | – | – | –
O=C(O)CN1C(=O)C2(COc3cc4c(cc32)OCCO4)c2ccccc21 (stereo not drawn) [Example 11.76, (2′-oxo-2,3-dihydrospiro[furo[2,3-g][1,4]benzodioxine-8,3′-indol]-1′(2′H)-yl)acetic acid] | 193 to 196 °C | – | – | –
CN1CCN(CN2C(=O)C3(COc4cc5c(cc43)OCO5)c3ccccc32)CC1 (stereo not drawn) (as salt: chloride) [Example 11.63, 1′-[(4-methylpiperazin-1-yl)methyl]spiro[furo[2,3-f][1,3]benzodioxole-7,3′-indol]-2′(1′H)-one hydrogen chloride] | > 175 °C (dec.) | – | – | –
CN1C(=O)C2(COc3cc4c(cc32)OCCO4)c2c(C(=O)NC3CC3)cccc21 (stereo not drawn) [Example 16.40, N-cyclopropyl-1′-methyl-2′-oxo-1′,2,2′,3-tetrahydrospiro[furo[2,3-g][1,4]benzodioxine-8,3′-indole]-4′-carboxamide] | 127 to 128 °C | – | – | –
O=C1N(CC2CCOCC2)c2ccccc2C12COc1cc(F)c(F)cc12 (stereo not drawn) [Example 9.65, 5,6-difluoro-1′-(tetrahydro-2H-pyran-4-ylmethyl)spiro[1-benzofuran-3,3′-indol]-2′(1′H)-one] | – | 1000 to 10000 nM | < 50% | –
O=C1Nc2ccccc2C12COc1cc(Br)ccc12 (stereo not drawn) [Example 3.2, 6-bromospiro[1-benzofuran-3,3′-indol]-2′(1′H)-one] | – | – | > 50% | 1000 to 10000 nM
O=C(NCC1CCCCC1)c1cccc(CN2C(=O)C3(COc4cc5c(cc43)CCO5)c3ccccc32)c1 (stereo not drawn) [Example 12, N-(cyclohexylmethyl)-3-[(2′-oxo-5,6-dihydrospiro[benzo[1,2-b:5,4-b′]difuran-3,3′-indol]-1′(2′H)-yl)methyl]benzamide] | – | 100 to 1000 nM | > 50% | –
O=C1N(Cc2ccc(C(F)(F)F)o2)c2ccccc2C12COc1cc(F)c(F)cc12 (stereo not drawn) [Example 9.32, 5,6-difluoro-1′-{[5-(trifluoromethyl)furan-2-yl]methyl}spiro[1-benzofuran-3,3′-indol]-2′(1′H)-one] | – | – | > 50% | 1000 to 10000 nM
O=C1N(Cc2ccc(C(F)(F)F)o2)c2ccccc2C12COc1ccc(Br)cc12 (stereo not drawn) [Example 2.23, 5-bromo-1′-((5-(trifluoromethyl)furan-2-yl)methyl)-2H-spiro[benzofuran-3,3′-indolin]-2′-one] | – | – | > 50% | 100 to 1000 nM
CS(=O)(=O)Nc1ccc2c(c1)OCC21C(=O)N(C[C@H]2CCCO2)c2ccccc21 (stereo partly drawn) [Example 11.48, N-{2′-oxo-1′-[(2R)-tetrahydrofuran-2-ylmethyl]-1′,2′-dihydrospiro[1-benzofuran-3,3′-indol]-6-yl}methanesulfonamide] | – | 1000 to 10000 nM | < 50% | –
CCN1CCC(CN2C(=O)C3(COc4cc5c(cc43)CCO5)c3ccccc32)CC1 (stereo not drawn) [Example 11.8, 1-[(1-ethylpiperidin-4-yl)methyl]-5,6-dihydrospiro[benzo[1,2-b:5,4-b′]difuran-3,3′-indol]-2′(1′H)-one] | – | 1000 to 10000 nM | > 50% | –
CC(C)(C)OC(=O)NC(CCN1C(=O)C2(COc3cc4c(cc32)OCO4)c2ccccc21)C1CC1 (stereo not drawn) [Example 4.78, tert-butyl [1-cyclopropyl-3-(2′-oxospiro[furo[2,3-f][1,3]benzodioxole-7,3′-indol]-1′(2′H)-yl)propyl]carbamate] | – | – | > 50% | 1 to 100 nM
O=C1Nc2ccccc2C12COc1ccc(F)cc12 (stereo not drawn) [Example 3.8, 5-fluoro-spiro[1-benzofuran-3,3′-indol]-2′(1′H)-one] | – | – | > 50% | 1000 to 10000 nM
O=C1N(Cc2ccccc2F)c2ccccc2C12COc1cc3c(cc12)CCO3 (stereo not drawn) [Example 4.12, 1′-(2-fluorobenzyl)-5,6-dihydrospiro[benzo[1,2-b:5,4-b′]difuran-3,3′-indol]-2′(1′H)-one] | – | – | < 50% | 1 to 100 nM
O=C(NCc1cccc(Cl)c1)c1ccccc1CN1C(=O)C2(COc3cc4c(cc32)CCO4)c2ccccc21 (stereo not drawn) [Example 12.23, N-(3-chlorobenzyl)-2-[(2′-oxo-5,6-dihydrospiro[benzo[1,2-b:5,4-b′]difuran-3,3′-indol]-1′(2′H)-yl)methyl]benzamide] | – | 1000 to 10000 nM | > 50% | –
O=C1Nc2cccc(Br)c2C12COc1cc3c(cc12)OCCO3 (stereo not drawn) [Example 3.32, 4′-bromo-2,3-dihydrospiro[furo[2,3-g][1,4]benzodioxine-8,3′-indol]-2′(1′H)-one] | – | – | < 50% | 100 to 1000 nM

SMILES | melting point | IC50 (sodium channel) | inhibition at 10 µM (CYP3A4) | IC50 (sodium channel; activity level class)
CCc1ccc(NC(=O)CN2C(=O)C3(COc4cc5c(cc43)CCO5)c3ccccc32)cc1 (stereo not drawn) [Example 12.47, N-(4-ethylphenyl)-2-(2′-oxo-5,6-dihydrospiro[benzo[1,2-b:5,4-b′]difuran-3,3′-indol]-1′(2′H)-yl)acetamide] | – | 1000 to 10000 nM | < 50% | –
COc1cc2c(cc1C)C1(CO2)C(=O)N(Cc2ccccn2)c2ccccc21 (stereo not drawn) [Example 4.62, 6-methoxy-5-methyl-1′-(pyridin-2-ylmethyl)spiro[1-benzofuran-3,3′-indol]-2′(1′H)-one] | – | – | > 50% | 1000 to 10000 nM
O=C1N(Cc2ccc(C(F)(F)F)o2)c2ccccc2C12COc1cc(Br)ccc12 (stereo not drawn) [Example 2.22, 6-bromo-1′-((5-(trifluoromethyl)furan-2-yl)methyl)-2H-spiro[benzofuran-3,3′-indolin]-2′-one] | – | – | > 50% | 1000 to 10000 nM
COC(=O)c1ccccc1CN1C(=O)C2(COc3cc4c(cc32)CCO4)c2ccccc21 (stereo not drawn) [Example 9.14, methyl 2-[(2′-oxo-5,6-dihydrospiro[benzo[1,2-b:5,4-b′]difuran-3,3′-indol]-1′(2′H)-yl)methyl]benzoate] | – | – | < 50% | 1 to 100 nM
COc1cncc(N2C(=O)C3(COc4cc5c(cc43)OCO5)c3ccccc32)c1 (stereo not drawn) [Example 1.17, 1′-(5-methoxypyridin-3-yl)spiro[furo[2,3-f][1,3]benzodioxole-7,3′-indol]-2′(1′H)-one] | – | – | > 50% | 100 to 1000 nM
COCCOCCN1C(=O)C2(COc3ccc(OCCOC)cc32)c2ccccc21 (stereo not drawn) [Example 9.76, 5-(2-methoxyethoxy)-1′-[2-(2-methoxyethoxy)ethyl]spiro[1-benzofuran-3,3′-indol]-2′(1′H)-one] | – | 100 to 1000 nM | < 50% | –
C[C@H](NC(=O)c1cccc(CN2C(=O)C3(COc4cc5c(cc43)CCO5)c3ccccc32)c1)C1CCCCC1 (stereo partly drawn) [Example 12.6, N-[(1S)-1-cyclohexylethyl]-3-[(2′-oxo-5,6-dihydrospiro[benzo[1,2-b:5,4-b′]difuran-3,3′-indol]-1′(2′H)-yl)methyl]benzamide] | – | 100 to 1000 nM | > 50% | –
CC1(C)COC(C)(CCN2C(=O)C3(COc4cc5c(cc43)OCCO5)c3ccccc32)OC1 (stereo not drawn) [Example 7.28] | – | – | > 50% | 1 to 100 nM
CC(CNC(=O)c1cccc(CN2C(=O)C3(COc4cc5c(cc43)CCO5)c3ccccc32)c1)c1ccccc1 (stereo not drawn) [Example 12.5, 3-[(2′-oxo-5,6-dihydrospiro[benzo[1,2-b:5,4-b′]difuran-3,3′-indol]-1′(2′H)-yl)methyl]-N-(2-phenylpropyl)benzamide] | – | 100 to 1000 nM | > 50% | –
NC(=O)c1cccc(CN2C(=O)C3(COc4cc5c(cc43)OCCO5)c3ccccc32)n1 (stereo not drawn) [Example 42, 6-[(2′-oxo-2,3-dihydrospiro[furo[2,3-g][1,4]benzodioxine-8,3′-indol]-1′(2′H)-yl)methyl]pyridine-2-carboxamide] | – | 1 to 100 nM | > 50% | –
CS(=O)(=O)Nc1cccnc1CN1C(=O)C2(COc3cc4c(cc32)OCCO4)c2ccccc21 (stereo not drawn) [Example 11.98, N-{2-[(2′-oxo-2,3-dihydrospiro[furo[2,3-g][1,4]benzodioxine-8,3′-indol]-1′(2′H)-yl)methyl]pyridine-3-yl}methanesulfonamide] | – | 100 to 1000 nM | > 50% | –
CS(=O)(=O)Nc1cccc(CN2C(=O)C3(COc4cc5c(cc43)OCCO5)c3ccccc32)c1 (stereo not drawn) [Example 11.94, N-{3-[(2′-oxo-2,3-dihydrospiro[furo[2,3-g][1,4]benzodioxine-8,3′-indol]-1′(2′H)-yl)methyl]phenyl}methanesulfonamide] | – | 100 to 1000 nM | > 50% | –
O=C1N(Cc2cccc(OC(F)(F)F)c2)c2ccccc2C12COc1cc3c(cc12)OCCO3 (stereo not drawn) [Example 7.24, 1′-[(3-trifluoromethoxy)benzyl]-2,3-dihydrospiro[furo[2,3-g][1,4]benzodioxine-8,3′-indol]-2′(1′H)-one] | – | – | > 50% | 1 to 100 nM
O=C1N(Cc2ccc(C(F)(F)F)o2)c2ccccc2C12CCOc1cc3c(cc12)CCO3 (stereo not drawn) [Example 4.70, 1-{[5-(trifluoromethyl)furan-2-yl]methyl}-2,3,6,7-tetrahydrospiro[furo[3,2-g]chromene-5,3′-indol]-2′(1′H)-one] | – | – | > 50% | 1000 to 10000 nM
O=C1N(C[C@H]2CCCO2)c2ccccc2C12COc1cc3c(cc12)COCO3 (stereo partly drawn) [Example 2.31, 1′-[(2R)-tetrahydrofuran-2-ylmethyl]-4H-spiro[furo[3,2-g][1,3]benzodioxine-6,3′-indol]-2′(1′H)-one] | – | – | > 50% | 1000 to 10000 nM
O=C1N(C[C@H]2CCCO2)c2cccc(-c3csc4ccccc34)c2C12COc1cc3c(cc12)CCO3 (stereo partly drawn) [Example 16.3, 4′-(1-benzothiophen-3-yl)-1′-[(2R)-tetrahydrofuran-2-ylmethyl]-5,6-dihydrospiro[benzo[1,2-b:5,4-b′]difuran-3,3′-indol]-2′(1′H)-one] | – | 1000 to 10000 nM | > 50% | –

— patent US8263606B2 (Xenon Pharmaceuticals Inc., priority 2008, dated 2012)
